# Laboratory results as given in patent publication US10898548B2, “Modulators of protein tyrosine phosphatase and uses thereof” (LEUVAS THERAPEUTICS, priority 2015, dated 2021).
# Test system: protein tyrosine phosphorylation in fMLP-stimulated monocytes
# Assay: Kinexus antibody microarray of tyrosine phosphorylation in fMLP-stimulated monocytes
# Assay type: cell-based, human
# Design: key to Functional effect of P1-WD on BTK / Functional effect of P1-WD on CDK2 / Functional effect of P1-WD on CTTN / Functional effect of P1-WD on DAB1 / Functional effect of P1-WD on DOK2 / Functional effect of P1-WD on ERBB2 / Functional effect of P1-WD on GRIN2B / Functional effect of P1-WD on ITGB1 / Functional effect of P1-WD on JAK2 / Functional effect of P1-WD on KDR / Functional effect of P1-WD on KIT / Functional effect of P1-WD on LIMK1 / Functional effect of P1-WD on MET / Functional effect of P1-WD on PDGFRA / Functional effect of P1-WD on PDGFRB / Functional effect of P1-WD on PRKCD / Functional effect of P1-WD on SHC1 / Functional effect of P1-WD on STAT1 / Functional effect of P1-WD on STAT2 / Functional effect of P1-WD on STAT3 / Functional effect of P1-WD on STAT5A / Functional effect of P1-WD on VCL / Functional effect of P1-WD on ABL1 / Functional effect of P1-WD on BLNK / Functional effect of P1-WD on BMX: inhibition (IN); activation (ACT)
# Text: To identify PTPRG targets in the context of fMLP signaling, we employed a high throughput antibody array technology using the P1-WD approach and fMLP-potentiated signaling networks, since this directly correlates with integrin triggering and mediated rapid adhesion. To analyze the phosphoproteome we used the comprehensive high throughput service developed by Kinexus, CA, USA. The Kinexus antibody microarray includes about 500 pan-specific and over 350 phosphosite-specific antibodies per chip, in duplicate spots. The analysis covers a variety of selected cell signaling proteins regulating cell proliferation, stress, apoptosis, adhesion, secretion, motility and other biological processes. Monocytes were treated with 50 μM P1 or P1-WD peptides for 60 min. at 37° C. and then stimulated with 50 nM fMLP for 3 min. Cells were immediately lysed according to Kinexus protocol and the samples were sent to Kinexus for microarray analysis. Data were normalized to control cells and statistically filtered by Kinexus to identify the most significant best hits. The analysis was, then, focused on phosphotyrosine-specific antibodies. Network inference analysis was performed within Cytoscape 3.1 bioinformatics environment by using previously established interatomic datasets compiled from public data-bases. The compiled protein-protein interatomic data-set was manually curated to remove self-loops and duplicate edges; different protein IDs were normalized to HGNC standard IDs. The set of 31 identified proteins whose tyrosine phosphorylation status was affected by PTPRG activity was used as bioinformatics probe allowing sub-network reconstruction. Directed node centrality indexes were computed with the Cytoscape plug-in Centiscape 2.1 (Scardoni G, et al., 2009, Bioinformatics 25: 2857-2859). Network modular decomposition was executed with the Cytoscape plug-in MCODE (Bader G, et al., 2003, BMC Bioinformatics 4: 2). Literature data mining was performed by multiple data base interrogation, mainly based on Phosphosite, PhosphoELM, PhosphoNet and KEA.
# Data analysis identified 31 molecules whose phosphorylation was modified in a statistically significant manner (Table 9). Values in % columns are percentage increase or decrease of protein tyrosine phosphorylation upon fMLP-triggering in P1-WD-treated vs P1-control treated monocytes. For some proteins (For some proteins (EGFR, INSR, KDR, KIT, PDGFRA, PTK2, PXN, SRC and ZAP70) multiple phosphotyrosine residues are detected. From left to right, columns are HGNC protein symbols (in alphabetic order), phosphosites (p-Sites), changes of phosphorylation (induced by P1-WD) and the putative functional effect, inferred from literature data-mining. EGFR and PTK2 are highlighted in gray since the functional effect could not be unambiguously inferred. The functional effect of P1-WD in the far right column indicates either inhibition (IN) or activation (ACT).
# [1] = P1-WD vs P1, 50 μM 60 min, 50 nM fMLP 3 min
# [2] = putative, inferred from literature data-mining
# [3] = putative, inferred from literature data-mining, per p-Site
substance,measurement,setting,value
"P1-WD: fusion Trojan peptide SEQ ID 3: Penetratin, glycine, PTPRG wedge domain aa 831-856; RQIKIWFQNRRMKWKKGKQFVKHIGELYSNNQHGFSEDFEEVQ (listed as Homo sapiens)",change of ABL1 Y412 tyrosine phosphorylation,[1],−40%
same,change of BLNK Y84 tyrosine phosphorylation,[1],19%
same,change of BMX Y40 tyrosine phosphorylation,[1],−7%
same,change of BTK Y223 tyrosine phosphorylation,[1],−58%
same,change of CDK2 Y15 tyrosine phosphorylation,[1],282%
same,change of CTTN Y470 tyrosine phosphorylation,[1],21%
same,change of DAB1 Y198 tyrosine phosphorylation,[1],−34%
same,change of DOK2 Y142 tyrosine phosphorylation,[1],9%
same,change of EGFR Y1068 tyrosine phosphorylation,[1],−13%
same,change of EGFR Y1148 tyrosine phosphorylation,[1],−16%
same,change of EGFR Y1173 tyrosine phosphorylation,[1],68%
same,change of ERBB2 Y1248 tyrosine phosphorylation,[1],34%
same,change of GRIN2B Y1474 tyrosine phosphorylation,[1],29%
same,change of INSR Y999 tyrosine phosphorylation,[1],58%
same,change of INSR Y1189/Y1190 tyrosine phosphorylation,[1],27%
same,change of ITGB1 Y783 tyrosine phosphorylation,[1],−11%
same,change of JAK2 Y1007/Y1008 tyrosine phosphorylation,[1],−33%
same,change of KDR Y1054 + Y1059 tyrosine phosphorylation,[1],22%
same,change of KDR Y1054 tyrosine phosphorylation,[1],−37%
same,change of KIT Y703 tyrosine phosphorylation,[1],−60%
same,change of KIT Y730 tyrosine phosphorylation,[1],−47%
same,change of LIMK1 Y507 tyrosine phosphorylation,[1],−10%
same,change of MET Y1003 tyrosine phosphorylation,[1],−47%
same,change of PDGFRA Y742 tyrosine phosphorylation,[1],133%
same,change of PDGFRA Y754 tyrosine phosphorylation,[1],86%
same,change of PDGFRB Y716 tyrosine phosphorylation,[1],−36%
same,change of PRKCD Y313 tyrosine phosphorylation,[1],189%
same,change of PTK2 Y397 tyrosine phosphorylation,[1],30%
same,change of PTK2 Y576 tyrosine phosphorylation,[1],65%
same,change of PTK2 Y577 tyrosine phosphorylation,[1],−60%
same,change of PTK2 Y861 tyrosine phosphorylation,[1],−11%
same,change of PXN Y31 tyrosine phosphorylation,[1],19%
same,change of PXN Y118 tyrosine phosphorylation,[1],144%
same,change of SHC1 Y349 + Y350 tyrosine phosphorylation,[1],−10%
same,change of SRC Y419 tyrosine phosphorylation,[1],−6%
same,change of SRC Y530 tyrosine phosphorylation,[1],94%
same,change of STAT1 Y701 tyrosine phosphorylation,[1],38%
same,change of STAT2 Y690 tyrosine phosphorylation,[1],61%
same,change of STAT3 Y705 tyrosine phosphorylation,[1],182%
same,change of STAT5A Y694 tyrosine phosphorylation,[1],50%
same,change of VCL Y821 tyrosine phosphorylation,[1],−20%
same,change of ZAP70 Y292 tyrosine phosphorylation,[1],−46%
same,change of ZAP70 Y315 + Y319 tyrosine phosphorylation,[1],12%
same,Functional effect of P1-WD on ABL1,[2],IN
same,Functional effect of P1-WD on BLNK,[2],ACT
same,Functional effect of P1-WD on BMX,[2],IN
same,Functional effect of P1-WD on BTK,[2],IN
same,Functional effect of P1-WD on CDK2,[2],IN
same,Functional effect of P1-WD on CTTN,[2],IN
same,Functional effect of P1-WD on DAB1,[2],IN
same,Functional effect of P1-WD on DOK2,[2],ACT
same,Functional effect of P1-WD on ERBB2,[2],ACT
same,Functional effect of P1-WD on GRIN2B,[2],ACT
same,Functional effect of P1-WD on ITGB1,[2],IN
same,Functional effect of P1-WD on JAK2,[2],IN
same,Functional effect of P1-WD on KDR,[2],IN
same,Functional effect of P1-WD on KIT,[2],IN
same,Functional effect of P1-WD on LIMK1,[2],IN
same,Functional effect of P1-WD on MET,[2],IN
same,Functional effect of P1-WD on PDGFRA,[2],ACT
same,Functional effect of P1-WD on PDGFRB,[2],IN
same,Functional effect of P1-WD on PRKCD,[2],ACT
same,Functional effect of P1-WD on SHC1,[2],IN
same,Functional effect of P1-WD on STAT1,[2],ACT
same,Functional effect of P1-WD on STAT2,[2],ACT
same,Functional effect of P1-WD on STAT3,[2],ACT
same,Functional effect of P1-WD on STAT5A,[2],ACT
same,Functional effect of P1-WD on VCL,[2],IN
same,Functional effect of P1-WD on INSR,[3],ACT/ACT
same,Functional effect of P1-WD on PXN,[3],ACT/ACT
same,Functional effect of P1-WD on SRC,[3],IN/IN
same,Functional effect of P1-WD on ZAP70,[3],ACT/ACT
same,Functional effect of P1-WD on PTK2,"putative, inferred from literature data-mining, per p-Site Y397/Y577/Y576/Y861, cell wraps to r32 (/IN)",ACT/IN/ACT
same,Functional effect of P1-WD on EGFR,"putative, inferred from literature data-mining, per p-Site Y1068/Y1148/Y1173",IN/IN/ACT
